{
  "source": "paper PMC9916441",
  "about": "“Resveratrol Derivative Exhibits Marked Antiproliferative Actions, Affecting Stemness in Pancreatic Cancer Cells” (International Journal of Molecular Sciences, 2023)",
  "key": {"[1]": {"test_system": "AsPC-1", "test": "Colony formation assay", "type": "cell-based, human", "conditions": "AsPC-1, 20 µM, 72 h treatment", "method": "(§1) A colony formation assay was performed as previously described. Briefly, the PC cells were seeded in 6-well plates, incubated for 24 h, and then treated for 72 h with 20 μM DF5, DF12, and RSV or with vehicle (DMSO) as indicated. After 4 days, following methanol fixation and crystal violet staining, the colonies of at least 30 cells were counted."}, "[2]": {"test_system": "Capan-2", "test": "Colony formation assay", "type": "cell-based, human", "conditions": "Capan-2, 20 µM, 72 h treatment", "method": "as §1"}, "[3]": {"test_system": "BxPC-3", "test": "Colony formation assay", "type": "cell-based, human", "conditions": "BxPC-3, 20 µM, 72 h treatment", "method": "as §1"}, "[4]": {"test_system": "AsPC-1", "test": "MTT cell viability assay", "type": "cell-based, human", "conditions": "for IC50: Homo sapiens, ASPC1, AsPC-1, MTT, 72 h", "method": "(§2) The cell viability was assessed using MTT assay, as previously described. Briefly, the cells were seeded in 96-well plates (4 × 10^3 cells/well) and were treated for 72 h with different concentrations of RSV, DF5, and DF12. The IC50 values were extrapolated from dose–response curves and calculated using the CompuSyn software (https://www.combosyn.com/). The selectivity index (SI) values were calculated as ratios between the IC50 values of compounds in normal HFF-1 fibroblast cells and the IC50 values of the same compounds in the PC cell lines."}, "[5]": {"test_system": "Capan-2", "test": "MTT cell viability assay", "type": "cell-based, human", "conditions": "for IC50 / viability at 50 µM: Homo sapiens, Capan-2, MTT; for IC50: 72 h; for viability at 50 µM: plateau reached already at 50 µM, read-out: residual viability", "method": "as §2"}, "[6]": {"test_system": "BxPC-3", "test": "MTT cell viability assay", "type": "cell-based, human", "conditions": "for IC50: Homo sapiens, BxPC-3, MTT, 72 h", "method": "as §2"}, "[7]": {"test_system": "Cyclin D3", "test": "Western blot of cyclin D3 in PC cell lines", "type": "cell-based, human", "conditions": "50 μM", "method": "(§3) The PC cell lines treated with 50 μM DF5, RSV, or with vehicle (DMSO) were lysed in a cell lysis buffer containing PMSF, protease inhibitors cocktails, and phosphatase inhibitors. The protein lysate quantification and immunoblot analyses were performed as previously described."}, "[8]": {"test_system": "cyclin B1/CDK1 complex", "test": "Western blot of cyclin B1, Cdc2/Cdk1 and p-Cdc2 (Thr161) in PC cell lines", "type": "cell-based, human", "conditions": "50 μM, BxPC-3", "method": "as §3"}, "[9]": {"test_system": "AsPC-1, BxPC-3 and Capan-2 PC cell lines", "test": "Cell growth, trypan blue exclusion test", "type": "cell-based, human", "conditions": "50 μM, counted at 24, 48 and 72 h, three PC cell lines, vs control", "method": "The cell counting was performed using the trypan blue exclusion test. Briefly, PC cells were seeded in 24-well plates (5 × 10^4 cells/well) and then were treated with 50 μM of DF5, RSV, or with vehicle and counted at 24, 48, and 72 h."}, "[10]": {"test_system": "p-SER^139H2AX", "test": "Western blot of phospho-H2AX (γH2AX) in PC cell lines", "type": "cell-based, human", "method": "as §3"}, "[11]": {"test_system": "AsPC-1, BxPC-3 and Capan-2 PC cell lines", "test": "Cell cycle analysis by flow cytometry", "type": "cell-based, human", "conditions": "50 μM, 24 h", "method": "To perform the cell cycle analysis, the PC cells (3 × 10^5) were collected, fixed in 70% cold ethanol, and kept at 4 °C overnight. The collected cells were incubated at 4 °C overnight in 5 μg/mL PI (final concentration) and 100 μg/mL RNAse (final concentration). The cell cycle profiles were analyzed as previously described."}, "[12]": {"test_system": "poly-(ADP-ribose) polymerase (PARP)", "test": "Western blot of PARP cleavage in PC cell lines", "type": "cell-based, human", "conditions": "vs untreated cells", "method": "as §3"}, "[13]": {"parameters": "method as in PMID 25224342", "conditions": "based on solubility of ref 43; cited from earlier work"}, "[14]": {"test_system": "normal HFF-1 fibroblast cells", "test": "MTT cell viability assay on normal fibroblasts", "type": "cell-based, human", "conditions": "72 h", "method": "as §2"}, "[15]": {"test_system": "AsPC-1", "test": "Flow cytometry immunophenotyping of CD133+EpCAM+ cancer stem-like subpopulation", "type": "cell-based, human", "conditions": "AsPC-1, 20 μM, 72 h", "method": "(§4) The expression of CD133 and EpCAM surface antigens was evaluated using flow cytometry. Briefly, the PC cells were seeded in 6-well plates and treated for 72 h with 20 μM DF5, RSV, or with vehicle (DMSO). After treatment, the cells were collected in PBS and stained at room temperature in the dark for 30 min with PE-CD133, FITC-EpCAM antibodies, and Reactive Dye. After labeling, the samples were washed in PBS by centrifugation at 1500 rpm for 10 min, to remove excess antibodies. Flow cytometer performance, stability, and data reproducibility were daily checked by using the CS&T quality control Module (BD Biosciences). The gating strategy and the evaluation of non-specific fluorescence was determined using fluorescence minus one (FMO) controls. The data were acquired with FACSVerse analyzer equipped with a volumetric count module (BD Biosciences, San Jose, CA, USA) and are expressed as the percentage of positive cells."}, "[16]": {"test_system": "Capan-2", "test": "Flow cytometry immunophenotyping of CD133+EpCAM+ cancer stem-like subpopulation", "type": "cell-based, human", "conditions": "Capan-2, 20 μM, 72 h", "method": "as §4"}, "[17]": {"test_system": "BxPC-3", "test": "Flow cytometry immunophenotyping of CD133+EpCAM+ cancer stem-like subpopulation", "type": "cell-based, human", "conditions": "BxPC-3, 20 μM, 72 h", "method": "as §4"}, "[18]": {"test_system": "AsPC-1", "test": "Apoptosis assay, annexin-V staining by flow cytometry", "type": "cell-based, human", "conditions": "24 h", "method": "(§5) The apoptosis assay was performed essentially as previously described. the analyses were performed using a CytoFLEX flow cytometer, using the FL1 detector in linear mode and the CytoExpert software (Beckmann Coulter, Milano, Italy)."}, "[19]": {"test_system": "Capan-2", "test": "Apoptosis assay, annexin-V staining by flow cytometry", "type": "cell-based, human", "conditions": "24 h", "method": "as §5"}, "[20]": {"test_system": "BxPC-3", "test": "Apoptosis assay, annexin-V staining by flow cytometry", "type": "cell-based, human", "conditions": "24 h", "method": "as §5"}},
  "data": [
    {"smiles": "Oc1ccc(/C=C/c2ccc3ccccc3c2)cc1", "note": "[DF12]", "values": [
      {"measurement": "effect on clonogenicity (colony formation)", "setting": "[1]", "result": "relevant effects on clonogenic capacity"},
      {"measurement": "effect on clonogenicity (colony formation)", "setting": "[2]", "result": "marginal effects"},
      {"measurement": "effect on clonogenicity (colony formation)", "setting": "[3]", "result": "relevant effects on clonogenic capacity"},
      {"measurement": "IC50", "setting": "[4]", "result": 11.1, "unit": "µM"},
      {"measurement": "IC50", "setting": "[5]", "result": 58.1, "unit": "µM"},
      {"measurement": "viability at 50 µM", "setting": "[5]", "result": "> 50", "unit": "%"},
      {"measurement": "IC50", "setting": "[6]", "result": 18.3, "unit": "µM"}
    ]},
    {"smiles": "Oc1ccc(/C=C/c2cc(O)cc(O)c2)cc1", "note": "[RSV, 3,5,4′-trihydroxy-trans-stilbene, reference compound]", "values": [
      {"measurement": "effect on cyclin D3 expression", "setting": "[7]", "result": "present but less marked"},
      {"measurement": "effect on expression of the cyclin B1/CDK1 complex", "setting": "[8]", "result": "much less evident"},
      {"measurement": "effect on cell growth (cell number)", "setting": "[9]", "result": "significantly, drastically, and comparably affected cell growth"},
      {"measurement": "effect on clonogenicity (colony formation)", "setting": "[1]", "result": "significantly, but modestly, affected clonogenic activity"},
      {"measurement": "effect on clonogenicity (colony formation)", "setting": "[2]", "result": "significantly, but modestly, affected clonogenic activity"},
      {"measurement": "effect on clonogenicity (colony formation)", "setting": "[3]", "result": "significantly, but modestly, affected clonogenic activity"},
      {"measurement": "activation (phosphorylation) of H2AX", "setting": "[10]; AsPC-1, 50 μM", "result": "increased H2AX phosphorylation"},
      {"measurement": "activation (phosphorylation) of H2AX", "setting": "[10]; BxPC-3, 50 μM", "result": "to a lesser extent"},
      {"measurement": "activation (phosphorylation) of H2AX", "setting": "[10]; Capan-2, 50 μM", "result": "no activation of H2AX"},
      {"measurement": "effect on cells in G0/G1 phase", "setting": "[11]; across the three PC cell lines, vs untreated cells", "result": "statistically significant accumulation of cells at the G0/G1 phase"},
      {"measurement": "effect on cells in G2/M phase", "setting": "[11]; three PC cell lines, in Capan-2 it did not reach statistical significance", "result": "drastic depletion of cells in the G2/M phase"},
      {"measurement": "effect on cleaved:uncleaved PARP ratio", "setting": "[12]; AsPC-1, 50 μM", "result": "affected the PARP cleavage ratio"},
      {"measurement": "effect on cleaved:uncleaved PARP ratio", "setting": "[12]; BxPC-3, 50 μM", "result": "small"},
      {"measurement": "effect on cleaved:uncleaved PARP ratio", "setting": "[12]; Capan-2, 50 μM", "result": "negligible"},
      {"measurement": "IC50", "setting": "[4]", "result": 29, "unit": "µM"},
      {"measurement": "Selectivity Index (SI) AsPC-1", "setting": "[4]; SI = IC50 on normal HFF-1 fibroblast cells/IC50 on AsPC-1", "result": "> 3.45"},
      {"measurement": "IC50", "setting": "[5]", "result": "> 100", "unit": "µM"},
      {"measurement": "viability at 50 µM", "setting": "[5]", "result": "> 50", "unit": "%"},
      {"measurement": "Selectivity Index (SI) Capan-2", "setting": "[5]; SI = IC50 on normal HFF-1 fibroblast cells/IC50 on Capan-2", "result": "> 1.00"},
      {"measurement": "IC50", "setting": "[6]", "result": 48.7, "unit": "µM"},
      {"measurement": "Selectivity Index (SI) BxPC-3", "setting": "[6]; SI = IC50 on normal HFF-1 fibroblast cells/IC50 on BxPC-3", "result": "> 2.05"},
      {"measurement": "Classification (water solubility)", "setting": "[13]", "result": "PI (PI (Practically Insoluble))"},
      {"measurement": "toxicity against normal HFF-1 fibroblast cells", "setting": "[14]; up to 100 μM", "result": "negligible toxicity"},
      {"measurement": "IC50", "setting": "[14]; Homo sapiens, normal HFF-1 fibroblasts, 100 μM highest concentration used", "result": "> 100", "unit": "µM"},
      {"measurement": "effect on percentage of CD133+EpCAM+ cancer stem-like subpopulation", "setting": "[15]", "result": "did not affect this subpopulation"},
      {"measurement": "effect on percentage of CD133+EpCAM+ cancer stem-like subpopulation", "setting": "[16]", "result": "did not affect this subpopulation"},
      {"measurement": "effect on percentage of CD133+EpCAM+ cancer stem-like subpopulation", "setting": "[17]", "result": "more marked effect"},
      {"measurement": "apoptosis induction (Annexin V+ cells)", "setting": "[18]; AsPC-1, 20 μM", "result": "statistically significant apoptosis"},
      {"measurement": "apoptosis induction (Annexin V+ cells)", "setting": "[18]; AsPC-1, 50 μM", "result": "significant but less marked increment of apoptotic cells"},
      {"measurement": "apoptosis induction (Annexin V+ cells)", "setting": "[19]; Capan-2, 20 μM", "result": "statistically significant apoptosis"},
      {"measurement": "apoptosis induction (Annexin V+ cells)", "setting": "[19]; Capan-2, 50 μM", "result": "significant but less marked increment of apoptotic cells"},
      {"measurement": "apoptosis induction (Annexin V+ cells)", "setting": "[20]; BxPC-3, 20 μM", "result": "neither compound affected apoptosis"},
      {"measurement": "apoptosis induction (Annexin V+ cells)", "setting": "[20]; BxPC-3, 50 μM", "result": "significant but less marked increment of apoptotic cells"}
    ]}
  ]
}
